“Also recorded” adds a separate entry of the source. Where two headings read alike, the source gives them in different places.
Tests used:
[1] = for Rate of Body Weight Change: 21st day vs 7th day; for Body weight decrease, in words: in combination with Cisplatin
Experimental: Methodology. 10 mg of a murine colonic tumor, colon 26, was inoculated under the skin of the back of CDF1 mice (day 0). After one week, the tumor was measured to calculate the volume of the tumor and the mice were classified into several groups (each group: n=5) and administration of the stilbene derivative and Cisplatin was started. On days 7, 11 and 15, the tumor-inoculated mice were bolusly injected under the skin of their backs and into their tail veins with 1 mg of the stilbene derivative of formula (3) in 1 ml of physiological saline solution and 0.5 mg of Cisplatin (“randa Inj”) in a volume of 1 ml. Control and comparative groups of mice were similarly injected with the other drug combinations described in Table 1. The comparative drug Vindesine is an antitumor drug used in combination with Cisplatin by Garalla et al. VP-16 is also a chemotherapeutic drug which is often used clinically in combination with Cisplatin.
As indicated in Table 1 the term [−CDDP] means that Cisplatin was not administered at all. The term [+CDDP] means that Cisplatin was administered in an amount of 5 mg/kg/day. The term [n.d.] means that no testing was performed.
Safety. The rate of body weight change was used as a measure of safety as significant loss of body weight is undesirable in cancer patients. Body weight change was calculated using the following equation: Rate of body weight change (%)=[{(body weight−weight of the tumor) at the 21st day}−{(body weight−weight of the tumor) at the 7th day}]/{body weight−weight of the tumor) at the 7th day}×100.
Using the above equation, the rate of body weight change at the 21st day was calculated.

[2] = system: murine colonic tumor, colon 26; test: Antitumor Activity Test (1): complete regression of colon 26 tumor in CDF1 mice (Example 1); format: in vivo; conditions: for Number of instances of complete regression of tumors: palpation on 60th day; for Complete regression (curing) of tumors in mice, in words: in combination with Cisplatin
Experimental: Antitumor effects: Complete regression of the colonic tumor was determined by palpation. Subjects in which the tumor has not been ascertained by palpation on the 60th day were deemed to have their tumors cured completely.

[3] = Safety Tests (2) and (3): rate of body weight change in colon 26 tumor-bearing CDF1 mice (Example 2); format: in vivo; conditions: 21st day vs 7th day
Experimental: (§1) Stilbene derivatives of formulas (3), (4) and (5), and Cisplatin and Carboplatin were bolusly injected into the tail vein on the 7th, 11th and 15th days as described in Tables 3 through 6 below.
(§2) The terms: [+CBDCA] and [+CDDP] indicate that 50 mg/kg/day of carboplatin or 5 mg/kg/day of cisplatin were administered, respectively. The terms: [−CBDCA] and [−CDDP] indicate that no carboplatin or cisplatin were administered. The dosages of cisplatin and carboplatin denote the maximum dosages without death due to toxicity in the administration schedule in the present embodiment.
Body weight change on the 21st day was calculated using the equation described in Example 1.

[4] = system: colonic tumor of mouse, colon 26; test: Antitumor Activity Tests (2) and (3): complete regression of colon 26 tumor in CDF1 mice (Example 2); format: in vivo; conditions: palpation on 60th day
Experimental: as §1
Antitumor effects: Complete regression of the colonic tumor was determined by palpation. Subjects in which the tumor had not been ascertained by palpation on the 60th day were deemed to have their tumors completely cured.
as §2

[5] = Solubility in water (statement)
[6] = Control, +CDDP: cisplatin alone 5 mg/kg/day
[7] = +CDDP (cisplatin 5 mg/kg/day), sample 5 mg/kg/day
[8] = Control, +CBDCA: carboplatin alone 50 mg/kg/day

COc1cc([C@@H]2c3cc4c(cc3[C@@H](O[C@@H]3O[C@@H]5CO[C@@H](C)O[C@H]5[C@H](O)[C@H]3O)[C@H]3COC(=O)[C@H]23)OCO4)cc(OC)c1O [VP-16, reference compound]
Rate of Body Weight Change ([1]; +CDDP (Cisplatin 5 mg/kg/day), sample 30 mg/kg/day): −9.9% | Body weight decrease, in words [1]: high rates of body weight loss | Rate of Body Weight Change ([1]; −CDDP, sample 30 mg/kg/day): −1.0% | Number of instances of complete regression of tumors ([2]; +CDDP (Cisplatin 5 mg/kg/day), sample 30 mg/kg/day on days 7, 11, 15): 0/5 | Complete regression (curing) of tumors in mice, in words [2]: complete tumor regression was not observed | Number of instances of complete regression of tumors ([2]; −CDDP, sample 30 mg/kg/day on days 7, 11, 15): 0/5

COc1ccc(/C=C\c2cc(OC)c(OC)c(OC)c2)cc1N [Compound (5)]
Rate of Body Weight Change ([3]; +CDDP (cisplatin 5 mg/kg/day), sample 20 mg/kg/day): −0.3% | Rate of Body Weight Change ([3]; −CDDP, sample 20 mg/kg/day): −2.1% | Number of instances of complete regression of tumors ([4]; +CDDP (cisplatin 5 mg/kg/day), sample 20 mg/kg/day, tail vein, 7th, 11th, 15th days): 6/6 | Number of instances of complete regression of tumors ([4]; −CDDP, sample 20 mg/kg/day, tail vein, 7th, 11th, 15th days): 0/6

N.N.[Cl][Pt][Cl] [CDDP, cis-diamminedichloroplatinum (II), reference compound]
Rate of Body Weight Change [1, 6]: −11.1% | Rate of Body Weight Change [3, 6]: −11.4% | Number of instances of complete regression of tumors ([2]; Control, +CDDP: Cisplatin alone 5 mg/kg/day on days 7, 11, 15): 0/5 | Number of instances of complete regression of tumors [4, 6]: 0/6

COc1ccc(/C=C\c2cc(OC)c(OC)c(OC)c2)cc1NC(=O)C(N)CO [Compound (3), (Z)-1-(3-amino-4-methoxyphenyl)-2-(3,4,5-trimethoxyphenyl)-ethene-L-serine amide]
Solubility in water, in words [5]: soluble in water | Rate of Body Weight Change ([1]; +CDDP (Cisplatin 5 mg/kg/day), sample 10 mg/kg/day): −1.9% | Rate of Body Weight Change [1, 7]: −4.2% | Body weight decrease, in words [1]: did not cause significant decreases in body weight | Rate of Body Weight Change ([1]; −CDDP, sample 10 mg/kg/day, tumor weight subtracted): −7.7% | Rate of Body Weight Change ([3]; +CBDCA (carboplatin 50 mg/kg/day), sample 20 mg/kg/day): 1.8% | Rate of Body Weight Change ([3]; −CBDCA, sample 20 mg/kg/day): −7.4% | Number of instances of complete regression of tumors ([2]; +CDDP (Cisplatin 5 mg/kg/day), sample 5 mg/kg/day on days 7, 11, 15): 1/5 | Number of instances of complete regression of tumors ([2]; +CDDP (Cisplatin 5 mg/kg/day), sample 10 mg/kg/day on days 7, 11, 15): 4/5 | Number of instances of complete regression of tumors ([2]; −CDDP, sample 10 mg/kg/day on days 7, 11, 15): 0/5 | Number of instances of complete regression of tumors ([4]; +CBDCA (carboplatin 50 mg/kg/day), sample 20 mg/kg/day, tail vein, 7th, 11th, 15th days): 1/6 | Number of instances of complete regression of tumors ([4]; −CBDCA, sample 20 mg/kg/day, tail vein, 7th, 11th, 15th days): 0/6

[NH2][Pt]1([NH2])[O]C(=O)C2(CCC2)C(=O)[O]1 [CBDCA, diammine(1,1-cyclobutane dicarboxylate) platinum (II), reference compound]
Rate of Body Weight Change [3, 8]: −9.6% | Number of instances of complete regression of tumors [4, 8]: 0/6

CC[C@]1(O)C[C@@H]2CN(CCc3c([nH]c4ccccc34)[C@@](C(=O)OC)(c3cc4c(cc3OC)N(C)[C@H]3[C@@](O)(C(N)=O)[C@H](O)[C@]5(CC)C=CCN6CC[C@]43[C@@H]65)C2)C1 [Vindesine]
Number of instances of complete regression of tumors ([2]; +CDDP (Cisplatin 5 mg/kg/day), sample 2 mg/kg/day on days 7, 11, 15): 0/5 | Complete regression (curing) of tumors in mice, in words [2]: complete curing of tumors in mice has not been observed; also recorded: complete tumor regression was not observed

COc1ccc(/C=C(/C#N)c2cc(OC)c(OC)c(OC)c2)cc1N [Compound (4)]
Rate of Body Weight Change [3, 7]: −13.9% | Rate of Body Weight Change ([3]; −CDDP, sample 5 mg/kg/day): −7.0% | Number of instances of complete regression of tumors ([4]; +CDDP (cisplatin 5 mg/kg/day), sample 5 mg/kg/day, tail vein, 7th, 11th, 15th days): 4/6 | Number of instances of complete regression of tumors ([4]; −CDDP, sample 5 mg/kg/day, tail vein, 7th, 11th, 15th days): 0/6

Reference: patent publication US7655696B2, “Anti-tumor composition” (Ajinomoto Co., Inc., priority 1998, dated 2010)
